Where “and” joins values, the source holds several entries; their conditions need not be identical. Equal entries are not always repeated. Inconclusive results and toxic doses are left out. Rule for the calls: active = survival T/C of 150% or more; inactive = T/C below 125% in these data.
Test system: P388 leukemia ip, CD2F1 mice, survival T/C
Assay: NCI In Vivo Anticancer Drug Screen. Data for tumor model P388 Leukemia (intraperitoneal) in CD2F1 (CDF1) mice
Conditions: endpoint: median survival time, higher = longer survival
Procedure, shortened: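 Mice carrying the transplanted tumor received test compound or vehicle. Survival was recorded in each group, and the value is the treated-group measurement divided by that of the vehicle-treated control group.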

[1] = dose: 60.0 mg/kg/injection, schedule: Q01DX005 (ip), vehicle: saline with Tween-80
[2] = dose: 120.0 mg/kg/injection, schedule: Q01DX005 (ip), vehicle: saline with Tween-80

Measured: T/C

O=C1C=Cc2cccc3ccc(O)c1c23
inactive: dose: 50.0 mg/kg/injection, schedule: Q01DX005 (ip), vehicle: Klucel (hydroxypropylcellulose) (HPC) 104 % of control | dose: 100.0 mg/kg/injection, schedule: Q01DX005 (ip), vehicle: Klucel (hydroxypropylcellulose) (HPC) 109 % of control | dose: 200.0 mg/kg/injection, schedule: Q01DX005 (ip), vehicle: Klucel (hydroxypropylcellulose) (HPC) 104 % of control

CCCN1CN2CCOC2C(C)(C)C1 (configuration not stated)
inactive: dose: 40.0 mg/kg/injection, schedule: Q01DX009 (ip), vehicle: saline with Tween-80 112 % of control | dose: 80.0 mg/kg/injection, schedule: Q01DX009 (ip), vehicle: saline with Tween-80 114 % of control

c1ccc(-c2ccc[n+](CC[n+]3cccc(-c4ccccn4)c3)c2)nc1
inactive: [1] 104 % of control | [2] 100 % of control

CCCCCCC(=O)/C=C\c1ccccc1
inactive: dose: 25.0 mg/kg/injection, schedule: Q04DX002 (ip), vehicle: saline with Tween-80 95 % of control | dose: 50.0 mg/kg/injection, schedule: Q04DX002 (ip), vehicle: saline with Tween-80 100 % of control | dose: 100.0 mg/kg/injection, schedule: Q04DX002 (ip), vehicle: saline with Tween-80 97 % of control | dose: 200.0 mg/kg/injection, schedule: Q04DX002 (ip), vehicle: saline with Tween-80 106 % of control

O=C1C(c2ccccc2)=C(c2ccccc2)C(=O)N1CCN1CCCC1
inactive: [1] 105 % of control | [2] 110 % of control | dose: 240.0 mg/kg/injection, schedule: Q01DX005 (ip), vehicle: saline with Tween-80 108 % of control

CCOC(=O)c1ccc(N)cc1
inactive: dose: 12.5 mg/kg/injection, schedule: Q01DX009 (ip), vehicle: distilled water + Tween-80 105 % of control | dose: 25.0 mg/kg/injection, schedule: Q01DX009 (ip), vehicle: distilled water + Tween-80 105 % of control | dose: 37.5 mg/kg/injection, schedule: Q01DX009 (ip), vehicle: saline with Tween-80 100 % of control | dose: 37.5 mg/kg/injection, schedule: Q04DX003 (ip), vehicle: saline with Tween-80 91 % of control | dose: 50.0 mg/kg/injection, schedule: Q01DX009 (ip), vehicle: distilled water + Tween-80 104 % of control | dose: 75.0 mg/kg/injection, schedule: Q01DX009 (ip), vehicle: saline with Tween-80 109 % of control | dose: 75.0 mg/kg/injection, schedule: Q04DX003 (ip), vehicle: saline with Tween-80 100 % of control | dose: 100.0 mg/kg/injection, schedule: Q01DX009 (ip), vehicle: distilled water + Tween-80 110 % of control | dose: 150.0 mg/kg/injection, schedule: Q01DX009 (ip), vehicle: saline with Tween-80 100 % of control | dose: 150.0 mg/kg/injection, schedule: Q04DX003 (ip), vehicle: saline with Tween-80 91 % of control | dose: 200.0 mg/kg/injection, schedule: Q01DX009 (ip), vehicle: distilled water + Tween-80 102 % of control

CC(c1c[nH]c2ccccc12)N1CCCCC1 (configuration not stated)
inactive: dose: 12.5 mg/kg/injection, schedule: Q01DX009 (ip), vehicle: Klucel (hydroxypropylcellulose) (HPC) 109 % of control | dose: 25.0 mg/kg/injection, schedule: Q01DX009 (ip), vehicle: Klucel (hydroxypropylcellulose) (HPC) 115 % of control | dose: 50.0 mg/kg/injection, schedule: Q01DX009 (ip), vehicle: Klucel (hydroxypropylcellulose) (HPC) 113 % of control

COC1(OC)C2(Cl)CC3C4(C)OC(Cl)(C31Cl)C42Cl (configuration not stated)
inactive: dose: 60.0 mg/kg/injection, schedule: Q01DX005 (ip), vehicle: Klucel (hydroxypropylcellulose) (HPC) 105 % of control | dose: 120.0 mg/kg/injection, schedule: Q01DX005 (ip), vehicle: Klucel (hydroxypropylcellulose) (HPC) 101 % of control | dose: 240.0 mg/kg/injection, schedule: Q01DX005 (ip), vehicle: Klucel (hydroxypropylcellulose) (HPC) 100 % of control

Cc1ccc(C(=O)C(CN(C)C)CN(C)C)cc1C
inactive: dose: 3.12 mg/kg/injection, schedule: Q01DX005 (ip), vehicle: saline 109 % of control | dose: 6.25 mg/kg/injection, schedule: Q01DX005 (ip), vehicle: saline 119 % of control and 124 % of control | dose: 25.0 mg/kg/injection, schedule: Q01DX005 (ip), vehicle: saline 114 % of control

NC(=S)N/N=C/c1cc(Cl)sc1Cl
inactive: dose: 50.0 mg/kg/injection, schedule: Q01DX005 (ip), vehicle: saline with Tween-80 102 % of control | dose: 100.0 mg/kg/injection, schedule: Q01DX005 (ip), vehicle: saline with Tween-80 98 % of control | dose: 200.0 mg/kg/injection, schedule: Q01DX005 (ip), vehicle: saline with Tween-80 96 % of control

Cc1ccc(NCCN(C)C)c2c(=O)c3ccc(O)cc3sc12
inactive: dose: 50.0 mg/kg/injection, schedule: Q01DX009 (ip), vehicle: saline with Tween-80 110 % of control | dose: 100.0 mg/kg/injection, schedule: Q01DX009 (ip), vehicle: saline with Tween-80 110 % of control

CC1CCCCC1(O)Cc1ccccc1 (configuration not stated)
inactive: dose: 50.0 mg/kg/injection, schedule: Q01DX005 (ip), vehicle: distilled water + alcohol 108 % of control | dose: 100.0 mg/kg/injection, schedule: Q01DX005 (ip), vehicle: distilled water + alcohol 101 % of control | dose: 200.0 mg/kg/injection, schedule: Q01DX005 (ip), vehicle: distilled water + alcohol 105 % of control

Reference: PubChem BioAssay AID330 (DTP/NCI, 2004)
